Experimental data published in the NIST ThermoML archive (doi:10.1016/j.fluid.2016.02.006).
Numbers after ± are expanded uncertainties. One block for each compound: values may come before it.

How the values were obtained:
[1] = Liquid, Vibrating tube method
[2] = xn = mol fraction of the nth substance listed; settings: 101 kPa, Liquid, Vibrating tube method

mass density ([2]; 308.15 K, x1 = 0.0959): 832.4 ± 4.5 kg/m3 | mass density ([2]; 308.15 K, x1 = 0.1937): 806.43 ± 3.9 kg/m3 | mass density ([2]; 308.15 K, x1 = 0.3048): 781.74 ± 3.5 kg/m3 | mass density ([2]; 308.15 K, x1 = 0.41): 762.04 ± 3.2 kg/m3 | mass density ([2]; 308.15 K, x1 = 0.5097): 745.81 ± 2.9 kg/m3 | mass density ([2]; 308.15 K, x1 = 0.6058): 732.34 ± 2.7 kg/m3 | mass density ([2]; 308.15 K, x1 = 0.711): 719.36 ± 2.6 kg/m3 | mass density ([2]; 308.15 K, x1 = 0.8101): 708.42 ± 2.5 kg/m3 | mass density ([2]; 308.15 K, x1 = 0.9076): 698.91 ± 2.4 kg/m3 | mass density ([2]; 308.15 K, x1 = 1): 690.72 ± 2 kg/m3 | mass density ([2]; 318.15 K, x1 = 0.0988): 821.33 ± 4.4 kg/m3 | mass density ([2]; 318.15 K, x1 = 0.1982): 796.48 ± 3.9 kg/m3 | mass density ([2]; 318.15 K, x1 = 0.3072): 771.56 ± 3.5 kg/m3 | mass density ([2]; 318.15 K, x1 = 0.407): 753.05 ± 3.1 kg/m3 | mass density ([2]; 318.15 K, x1 = 0.5096): 736.77 ± 2.9 kg/m3 | mass density ([2]; 318.15 K, x1 = 0.598): 724.35 ± 2.7 kg/m3 | mass density ([2]; 318.15 K, x1 = 0.7048): 711.47 ± 2.6 kg/m3 | mass density ([2]; 318.15 K, x1 = 0.8039): 700.49 ± 2.5 kg/m3 | mass density ([2]; 318.15 K, x1 = 0.9005): 691.19 ± 2.4 kg/m3 | mass density ([2]; 318.15 K, x1 = 1): 682.5 ± 2 kg/m3
SMILES: CCCCCCCC [octane] + c1ccccc1

mass density ([1]; 298.15 K, 101.33 kPa): 698.86 ± 2 kg/m3 | mass density ([1]; 308.15 K, 101 kPa): 690.72 ± 2 kg/m3 | mass density ([1]; 318.15 K, 101 kPa): 682.5 ± 2 kg/m3
SMILES: CCCCCCCC [octane]

mass density ([1]; 298.15 K, 101.33 kPa): 745.28 ± 2 kg/m3
SMILES: CCCCCCCCCCCC [dodecane]

mass density ([1]; 298.15 K, 101.33 kPa): 726.15 ± 2 kg/m3
SMILES: CCCCCCCCCC [decane]

The remaining lines, values behind:

SMILES: c1ccccc1 [benzene]
mass density ([1]; 298.15 K, 101.33 kPa): 873.71 ± 2 kg/m3 | mass density ([1]; 308.15 K, 101 kPa): 862.98 ± 2 kg/m3 | mass density ([1]; 318.15 K, 101 kPa): 852.16 ± 2 kg/m3

SMILES: c1ccccc1 [benzene] + CCCCCCCC
mass density ([2]; 308.15 K, x2 = 0): 862.98 ± 2 kg/m3 | mass density ([2]; 318.15 K, x2 = 0): 852.16 ± 2 kg/m3

SMILES: CCCC[N+](C)(CCCC)CCCC.O=S(=O)([N-]S(=O)(=O)C(F)(F)F)C(F)(F)F [tributylmethylammonium bis((trifluoromethyl)sulfonyl)imide]
mass density ([1]; 298.15 K, 101.33 kPa): 1261.65 ± 6 kg/m3

SMILES: CCCC[N+](C)(C)C.O=S(=O)([N-]S(=O)(=O)C(F)(F)F)C(F)(F)F [butyltrimethylammonium bis(trifluoromethylsulfonyl)imide]
mass density ([1]; 298.15 K, 101.33 kPa): 1392.99 ± 6 kg/m3
